According to ChEMBL document CHEMBL1201862, “PubChem BioAssay data set” (2004):
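Results reflect a 48-hour exposure of cells in 96-well plates to compound at five concentrations. GI50 is the concentration that inhibits growth by half.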 The source made the active and inactive calls. Cut-off read from the data, not from the text of the source: active = GI50 up to about 1.1 µM and inactive = higher.

What was measured:
Experiment in all cases: DTP human tumour cell line panel, 48 h
[1] = system: A549
[2] = system: CAKI-1
[3] = system: HCT-116
[4] = system: HL-60
[5] = system: Hs-578T
[6] = system: M14
[7] = system: MDA-MB-435
[8] = system: MDA-N
[9] = system: MOLT-4
[10] = system: NCI-H460
[11] = system: NCI-H522
[12] = system: RXF 393
[13] = system: SF-295
[14] = system: SF-539
[15] = system: SK-MEL-28
[16] = system: SK-MEL-2
[17] = system: SN12C
[18] = system: SNB-19
[19] = system: T47D
[20] = system: UACC-257

SMILES	GI50 [1]	GI50 [2]	GI50 [3]	GI50 [4]	GI50 [5]	GI50 [6]	GI50 [7]	GI50 [8]	GI50 [9]	GI50 [10]	GI50 [11]	GI50 [12]	GI50 [13]	GI50 [14]	GI50 [15]	GI50 [16]	GI50 [17]	GI50 [18]	GI50 [19]	GI50 [20]
N=C1N=C(N)c2cc3c(cc21)SCCSCCCSCCS3	18.7 µM (inactive)	42.4 µM (inactive)	9.59 µM (inactive)	3.77 µM (inactive)	10.1 µM (inactive)	16.6 µM (inactive)	11.1 µM (inactive)	15 µM (inactive)	10.2 µM (inactive)	13.3 µM (inactive)	2.8 µM (inactive)	15.8 µM (inactive)	13.9 µM (inactive)	20.1 µM (inactive)	14.6 µM (inactive)	16.1 µM (inactive)	14.6 µM (inactive)	15.5 µM (inactive)	24.8 µM (inactive)	20.2 µM (inactive)
N=C(N)N/N=C/c1c(Cl)nc2n1CCS2	62.5 µM (inactive)	> 100 µM (inactive)	16.6 µM (inactive)	> 100 µM (inactive)	64.1 µM (inactive)	56.4 µM (inactive)	59.4 µM (inactive)	29 µM (inactive)	46.8 µM (inactive)	48.4 µM (inactive)	42.4 µM (inactive)	22.5 µM (inactive)	99.1 µM (inactive)	47.5 µM (inactive)	> 100 µM (inactive)	> 100 µM (inactive)	62.5 µM (inactive)	> 100 µM (inactive)	> 100 µM (inactive)	> 100 µM (inactive)
COc1nc(N)nc2c1n(C)c[n+]2C	> 100 µM (inactive)	> 100 µM (inactive)	> 100 µM (inactive)	> 100 µM (inactive)	> 100 µM (inactive)	> 100 µM (inactive)	> 100 µM (inactive)	> 100 µM (inactive)	> 100 µM (inactive)	> 100 µM (inactive)	> 100 µM (inactive)	> 100 µM (inactive)	> 100 µM (inactive)	> 100 µM (inactive)	> 100 µM (inactive)	> 100 µM (inactive)	> 100 µM (inactive)	> 100 µM (inactive)	> 100 µM (inactive)	> 100 µM (inactive)
CCOc1ccc(/N=C/c2ccnc3ccccc23)cc1	> 86.3 µM (inactive)	74.3 µM (inactive)	0.912 µM (active)	2.05 µM (inactive)	40.4 µM (inactive)	30.3 µM (inactive)	42.7 µM (inactive)	30.1 µM (inactive)	5.9 µM (inactive)	61.7 µM (inactive)	36.3 µM (inactive)	> 96.6 µM (inactive)	49.1 µM (inactive)	26.5 µM (inactive)	50.1 µM (inactive)	61.8 µM (inactive)	29 µM (inactive)	82.8 µM (inactive)	47.9 µM (inactive)	98.6 µM (inactive)
O=C(c1ccccc1Cl)n1oc2ccccc2c1=O	> 100 µM (inactive)	29.7 µM (inactive)	52.8 µM (inactive)	18 µM (inactive)	> 100 µM (inactive)	> 100 µM (inactive)	> 100 µM (inactive)	> 100 µM (inactive)	22.8 µM (inactive)	> 100 µM (inactive)	13.8 µM (inactive)	68.7 µM (inactive)	> 100 µM (inactive)	37.8 µM (inactive)	> 100 µM (inactive)	> 100 µM (inactive)	> 100 µM (inactive)	> 100 µM (inactive)	> 100 µM (inactive)	86.7 µM (inactive)
O=C1c2ccccc2C(=O)c2c1oc(=O)c1ccccc21	7.46 µM (inactive)	6.21 µM (inactive)	1.03 µM (active)	0.664 µM (active)	6.43 µM (inactive)	6.05 µM (inactive)	1.06 µM (active)	2.2 µM (inactive)	3.79 µM (inactive)	4.38 µM (inactive)	4.07 µM (inactive)	4.48 µM (inactive)	3.83 µM (inactive)	10.7 µM (inactive)	6.5 µM (inactive)	4.84 µM (inactive)	3.49 µM (inactive)	8.75 µM (inactive)	5.47 µM (inactive)	3.22 µM (inactive)
O=C(O)CSc1ccn(Cc2ccccc2)c1	> 100 µM (inactive)	> 100 µM (inactive)	> 100 µM (inactive)	> 100 µM (inactive)	> 100 µM (inactive)	> 100 µM (inactive)	> 100 µM (inactive)	> 100 µM (inactive)	> 100 µM (inactive)	> 100 µM (inactive)	> 100 µM (inactive)	> 100 µM (inactive)	> 100 µM (inactive)	> 100 µM (inactive)	> 100 µM (inactive)	> 100 µM (inactive)	> 100 µM (inactive)	> 100 µM (inactive)	> 100 µM (inactive)	> 100 µM (inactive)
Ic1ccc2c(c1)N(c1ccccc1)c1cc([N-]c3ccc4nc5ccc(I)cc5[n+](-c5ccccc5)c4c3)ccc1N2	> 100 µM (inactive)	> 100 µM (inactive)	35 µM (inactive)	17.9 µM (inactive)	> 100 µM (inactive)	26.9 µM (inactive)	31.4 µM (inactive)	37.6 µM (inactive)	68.9 µM (inactive)	42 µM (inactive)	22.8 µM (inactive)	> 100 µM (inactive)	> 100 µM (inactive)	> 100 µM (inactive)	> 100 µM (inactive)	> 100 µM (inactive)	> 100 µM (inactive)	> 100 µM (inactive)	61.7 µM (inactive)	31.3 µM (inactive)
COC(CNC(=O)C(C)NC(=O)CCc1ccccc1)OC (stereo not given)	> 100 µM (inactive)	> 100 µM (inactive)	> 100 µM (inactive)	> 100 µM (inactive)	> 100 µM (inactive)	> 100 µM (inactive)	> 100 µM (inactive)	> 100 µM (inactive)	> 100 µM (inactive)	> 100 µM (inactive)	> 100 µM (inactive)	> 100 µM (inactive)	> 100 µM (inactive)	> 100 µM (inactive)	> 100 µM (inactive)	> 100 µM (inactive)	> 100 µM (inactive)	> 100 µM (inactive)	> 100 µM (inactive)	> 100 µM (inactive)
C=C1COC(O)(C2OCOC(C3CC(=O)NC(=O)C3)C2O)C1C (stereo not given)	0.00221 µM (active)	0.00468 µM (active)	0.00348 µM (active)	0.00303 µM (active)	0.00629 µM (active)	0.00442 µM (active)	0.00333 µM (active)	0.0034 µM (active)	0.0011 µM (active)	0.00413 µM (active)	0.000716 µM (active)	0.00404 µM (active)	0.00305 µM (active)	0.00185 µM (active)	0.00573 µM (active)	0.0016 µM (active)	0.00224 µM (active)	0.00233 µM (active)	0.00146 µM (active)	0.00802 µM (active)
CCC(=O)Nc1cccc(/N=C/c2ccc(OC(=O)/C=C\c3ccccc3)cc2)c1	54 µM (inactive)	> 75 µM (inactive)	> 75 µM (inactive)	> 75 µM (inactive)	32.5 µM (inactive)	> 75 µM (inactive)	> 75 µM (inactive)	58.6 µM (inactive)	27 µM (inactive)	61.5 µM (inactive)	33.7 µM (inactive)	12.2 µM (inactive)	41.3 µM (inactive)	14.8 µM (inactive)	61.4 µM (inactive)	> 75 µM (inactive)	> 75 µM (inactive)	> 75 µM (inactive)	8.26 µM (inactive)	> 75 µM (inactive)
N=C(N)NS(=O)(=O)c1ccc(NC(=O)c2ccc3nc4ccccc4c(O)c3c2)cc1	> 100 µM (inactive)	> 100 µM (inactive)	> 100 µM (inactive)	> 100 µM (inactive)	> 100 µM (inactive)	> 100 µM (inactive)	> 100 µM (inactive)	> 100 µM (inactive)	> 100 µM (inactive)	> 100 µM (inactive)	> 100 µM (inactive)	> 100 µM (inactive)	> 100 µM (inactive)	> 100 µM (inactive)	> 100 µM (inactive)	> 100 µM (inactive)	> 100 µM (inactive)	> 100 µM (inactive)	> 100 µM (inactive)	> 100 µM (inactive)
COC(=O)CN1c2nc(C#N)c(C#N)nc2N(CC(=O)OC)c2nc(C#N)c(C#N)nc21	12 µM (inactive)	0.54 µM (active)	1.58 µM (inactive)	2.26 µM (inactive)	19.6 µM (inactive)	1.84 µM (inactive)	2.64 µM (inactive)	3.53 µM (inactive)	0.479 µM (active)	22 µM (inactive)	0.863 µM (active)	2.91 µM (inactive)	19.5 µM (inactive)	7.11 µM (inactive)	3.74 µM (inactive)	8.81 µM (inactive)	3.34 µM (inactive)	12 µM (inactive)	2.35 µM (inactive)	2.72 µM (inactive)
Clc1ccccc1-c1nc(-c2ccncc2)no1 [PIFEXOLE]	69 µM (inactive)	57.3 µM (inactive)	43.4 µM (inactive)	13.4 µM (inactive)	36.6 µM (inactive)	62.2 µM (inactive)	48.6 µM (inactive)	49.3 µM (inactive)	26.8 µM (inactive)	58.7 µM (inactive)	25.8 µM (inactive)	29.3 µM (inactive)	36.5 µM (inactive)	> 100 µM (inactive)	> 100 µM (inactive)	> 100 µM (inactive)	38.2 µM (inactive)	96.2 µM (inactive)	29.2 µM (inactive)	37.8 µM (inactive)
